Results: the supplement of paper PMC12819154, “High-throughput peptide-centric local stability assay extends protein–ligand identification to membrane proteins, tissues and bacteria” (Nature Structural & Molecular Biology, 2025)

What was measured:
Experiment in all cases: pEC50 of peptide local stability change
UniProt P76419 = conditions: peptide sequence: GGDCAPTREELLLAHK; direction: stabilized; replicate design: treated separately
Summary of the method: (§1)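 Reported values are mean pEC50 estimates. They come from four-parameter log-logistic fits of treated/control peptide ratios, measured by DIA LC–MS/MS in four replicates of E. coli K-12 BW25113 lysate (1.2 mg ml^−1, desalted, MgCl2-supplemented) given ATP at seven doses (10 µM–10 mM) or water for 30 min at 25 °C and trypsin-digested for 4 min at 22 °C. A value was kept only when R^2 exceeded 0.9 in at least three replicates and the coefficient of variation was no more than 0.25.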

UniProt P0AEC3 = conditions: peptide sequence: DSHGGKPATGTGIGLAVSR; direction: stabilized; replicate design: treated separately
Summary of the method: as §1

UniProt P76192 = conditions: peptide sequence: VLPAEEYAEIR; direction: stabilized; replicate design: treated separately
Summary of the method: as §1

MurF = MurF (UniProt P11880); conditions: peptide sequence: KLTPGCLFVALKGER; direction: stabilized; replicate design: treated separately
Summary of the method: as §1

UniProt P37617 = conditions: peptide sequence: VTQVAFDKTGTLTVGKPR; direction: stabilized; replicate design: treated separately
Summary of the method: as §1

UniProt P07118 = conditions: peptide sequence: ITPAHDFNDYEVGKR; direction: stabilized; replicate design: treated separately
Summary of the method: as §1

UniProt P37903 = conditions: peptide sequence: KFKLPTDR; direction: stabilized; replicate design: treated separately
Summary of the method: as §1

UniProt P43672 = conditions: peptide sequence: LMLGQLQADSGR; direction: stabilized; replicate design: treated separately
Summary of the method: as §1

UniProt P0AFW8 = conditions: peptide sequence: KNVEYLVVEAAGETR; direction: stabilized; replicate design: treated separately
Summary of the method: as §1

UniProt P76256 = conditions: peptide sequence: GPGSFTGVR; direction: stabilized; replicate design: treated separately
Summary of the method: as §1

UniProt P27300 = conditions: peptide sequence: SVDAVIVNGGVPR; direction: stabilized; replicate design: treated separately
Summary of the method: as §1

UniProt P0A9B6 = conditions: peptide sequence: SLQSLPWR; direction: stabilized; replicate design: treated separately
Summary of the method: as §1

UniProt P15640 = conditions: peptide sequence: VIEFNCR; direction: stabilized; replicate design: treated separately
Summary of the method: as §1

UniProt P39342 = conditions: peptide sequence: AMVIAPCSR; direction: stabilized; replicate design: treated separately
Summary of the method: as §1

UniProt P76422 = conditions: peptide sequence: GGHLDDEQSPDWLFTR; direction: stabilized; replicate design: treated separately
Summary of the method: as §1

UniProt P0C0L2 = conditions: peptide sequence: GQAHWEGDIKR; direction: stabilized; replicate design: treated separately
Summary of the method: as §1

UniProt P31060 = conditions: peptide sequence: QSQFSHITR; direction: stabilized; replicate design: treated separately
Summary of the method: as §1

UniProt P36938 = conditions: peptide sequence: TLVSSAMIDR; direction: stabilized; replicate design: treated separately
Summary of the method: as §1

UniProt P0A6H5 = conditions: peptide sequence: LANAPFIK; direction: stabilized; replicate design: treated separately
Summary of the method: as §1

UniProt P23830 = conditions: peptide sequence: EALGVLHFK; direction: stabilized; replicate design: treated separately
Summary of the method: as §1

UniProt P0A9P6 = conditions: peptide sequence: DVLGMAQTGSGK; direction: stabilized; replicate design: treated separately
Summary of the method: as §1

UniProt P76014 = conditions: peptide sequence: VVEKLPAIADKDIGFILK; direction: stabilized; replicate design: treated separately
Summary of the method: as §1

UniProt P77756 = conditions: peptide sequence: ALNHAVSLGMAK; direction: stabilized; replicate design: treated separately
Summary of the method: as §1

UniProt P0DMC5 = conditions: peptide sequence: EVMNHITANYLPLVVR; direction: stabilized; replicate design: treated separately
Summary of the method: as §1

UniProt P25888 = conditions: peptide sequence: DLMASAQTGTGK; direction: stabilized; replicate design: treated separately
Summary of the method: as §1

UniProt P39177 = conditions: peptide sequence: NPSISTHLLGSNASSVIR; direction: stabilized; replicate design: treated separately
Summary of the method: as §1

UniProt P07395 = conditions: peptide sequence: EISRFPANRR; direction: stabilized; replicate design: treated separately
Summary of the method: as §1

UniProt P07109 = conditions: peptide sequence: HVSTHVIFLHQGK; direction: stabilized; replicate design: treated separately
Summary of the method: as §1

UniProt P00582 = conditions: peptide sequence: LYLPDIK; direction: stabilized; replicate design: treated separately
Summary of the method: as §1

UniProt P33940 = conditions: peptide sequence: EYYPQAK; direction: stabilized; replicate design: treated separately
Summary of the method: as §1

UniProt P27833 = conditions: peptide sequence: SALINFLK; direction: stabilized; replicate design: treated separately
Summary of the method: as §1

Chain of UniProt P27300 (P27300 whole entry): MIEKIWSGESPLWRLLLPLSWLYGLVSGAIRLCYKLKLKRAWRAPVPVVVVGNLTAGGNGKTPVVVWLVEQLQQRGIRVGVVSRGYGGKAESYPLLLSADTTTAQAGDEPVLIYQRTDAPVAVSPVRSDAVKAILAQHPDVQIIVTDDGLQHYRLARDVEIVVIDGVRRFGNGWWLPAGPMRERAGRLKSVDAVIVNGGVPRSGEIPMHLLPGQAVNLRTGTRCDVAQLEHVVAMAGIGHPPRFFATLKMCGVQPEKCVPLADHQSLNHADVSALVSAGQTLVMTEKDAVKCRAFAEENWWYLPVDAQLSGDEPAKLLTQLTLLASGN
Chain of UniProt P0C0L2 (P0C0L2 whole entry): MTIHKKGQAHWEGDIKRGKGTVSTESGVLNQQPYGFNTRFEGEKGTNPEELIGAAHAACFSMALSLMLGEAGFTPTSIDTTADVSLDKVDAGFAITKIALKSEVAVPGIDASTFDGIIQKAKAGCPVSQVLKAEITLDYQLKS
Chain of UniProt P76422 (P76422 whole entry): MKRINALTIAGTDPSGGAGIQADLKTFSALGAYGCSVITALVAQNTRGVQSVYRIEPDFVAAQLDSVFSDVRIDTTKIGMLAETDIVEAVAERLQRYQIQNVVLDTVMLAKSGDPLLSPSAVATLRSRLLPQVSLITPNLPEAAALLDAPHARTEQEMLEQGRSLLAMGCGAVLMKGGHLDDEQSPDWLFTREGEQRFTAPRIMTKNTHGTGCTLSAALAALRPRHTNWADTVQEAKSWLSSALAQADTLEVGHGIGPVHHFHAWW
Chain of UniProt P07109 (P07109 whole entry): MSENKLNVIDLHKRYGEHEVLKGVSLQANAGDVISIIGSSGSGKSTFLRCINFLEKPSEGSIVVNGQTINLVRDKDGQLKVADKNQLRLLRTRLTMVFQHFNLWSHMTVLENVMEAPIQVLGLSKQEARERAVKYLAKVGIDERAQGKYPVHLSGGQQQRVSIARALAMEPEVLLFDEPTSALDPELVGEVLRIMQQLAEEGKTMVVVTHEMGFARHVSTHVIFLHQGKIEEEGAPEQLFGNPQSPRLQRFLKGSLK
Chain of UniProt P39342 (P39342 whole entry): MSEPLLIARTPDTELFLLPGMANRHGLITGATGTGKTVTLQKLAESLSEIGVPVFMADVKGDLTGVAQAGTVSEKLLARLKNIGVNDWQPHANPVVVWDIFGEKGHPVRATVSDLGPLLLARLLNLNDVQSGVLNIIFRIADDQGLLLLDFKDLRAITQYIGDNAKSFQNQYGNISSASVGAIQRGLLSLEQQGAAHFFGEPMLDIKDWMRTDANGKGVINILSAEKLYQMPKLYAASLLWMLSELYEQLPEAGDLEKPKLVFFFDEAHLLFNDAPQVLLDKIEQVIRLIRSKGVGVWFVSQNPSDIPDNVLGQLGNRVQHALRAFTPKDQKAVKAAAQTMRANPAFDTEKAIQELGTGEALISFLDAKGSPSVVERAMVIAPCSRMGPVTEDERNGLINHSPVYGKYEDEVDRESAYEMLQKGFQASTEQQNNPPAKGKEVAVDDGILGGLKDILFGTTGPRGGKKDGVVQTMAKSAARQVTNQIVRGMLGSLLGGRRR
Chain of UniProt P0AEC3 (P0AEC3 whole entry): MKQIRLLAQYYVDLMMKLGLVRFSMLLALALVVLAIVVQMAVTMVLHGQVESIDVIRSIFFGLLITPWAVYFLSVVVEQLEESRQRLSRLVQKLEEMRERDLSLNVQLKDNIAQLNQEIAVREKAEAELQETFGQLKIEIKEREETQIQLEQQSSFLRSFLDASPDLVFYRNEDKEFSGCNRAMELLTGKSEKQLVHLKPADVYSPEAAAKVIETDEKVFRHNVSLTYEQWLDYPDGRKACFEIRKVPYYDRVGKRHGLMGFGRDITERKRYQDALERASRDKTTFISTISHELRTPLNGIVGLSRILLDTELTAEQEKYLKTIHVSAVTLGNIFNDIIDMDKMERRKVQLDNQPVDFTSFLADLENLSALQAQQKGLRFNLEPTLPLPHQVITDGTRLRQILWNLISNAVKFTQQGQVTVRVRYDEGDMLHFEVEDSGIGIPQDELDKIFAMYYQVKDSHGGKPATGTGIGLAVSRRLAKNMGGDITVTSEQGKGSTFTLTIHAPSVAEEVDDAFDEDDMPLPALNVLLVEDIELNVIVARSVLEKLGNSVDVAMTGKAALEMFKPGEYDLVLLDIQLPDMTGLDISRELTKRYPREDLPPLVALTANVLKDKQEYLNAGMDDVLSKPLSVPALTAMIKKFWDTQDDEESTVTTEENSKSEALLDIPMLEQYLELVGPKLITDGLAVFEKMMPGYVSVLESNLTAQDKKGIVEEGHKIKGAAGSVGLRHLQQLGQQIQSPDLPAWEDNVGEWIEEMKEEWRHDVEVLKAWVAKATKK
Chain of UniProt P0AFW8 (P0AFW8 whole entry): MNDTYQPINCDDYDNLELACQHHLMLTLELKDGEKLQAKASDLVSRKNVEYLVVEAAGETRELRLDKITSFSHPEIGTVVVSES
Chain of UniProt P36938 (P36938 whole entry): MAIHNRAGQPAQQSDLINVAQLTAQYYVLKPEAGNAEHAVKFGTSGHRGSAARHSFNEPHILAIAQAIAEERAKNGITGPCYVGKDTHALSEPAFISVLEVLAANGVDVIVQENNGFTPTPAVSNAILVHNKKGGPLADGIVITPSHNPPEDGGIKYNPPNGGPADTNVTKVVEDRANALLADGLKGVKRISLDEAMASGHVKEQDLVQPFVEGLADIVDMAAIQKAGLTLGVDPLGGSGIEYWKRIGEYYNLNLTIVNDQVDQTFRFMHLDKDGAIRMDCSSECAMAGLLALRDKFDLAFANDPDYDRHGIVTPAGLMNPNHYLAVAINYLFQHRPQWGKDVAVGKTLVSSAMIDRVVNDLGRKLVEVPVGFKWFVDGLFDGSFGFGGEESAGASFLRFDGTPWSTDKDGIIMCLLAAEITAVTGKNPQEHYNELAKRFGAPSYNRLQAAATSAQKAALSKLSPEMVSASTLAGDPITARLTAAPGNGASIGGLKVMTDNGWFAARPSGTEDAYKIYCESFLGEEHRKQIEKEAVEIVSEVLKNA
Chain of UniProt P76256 (P76256 whole entry): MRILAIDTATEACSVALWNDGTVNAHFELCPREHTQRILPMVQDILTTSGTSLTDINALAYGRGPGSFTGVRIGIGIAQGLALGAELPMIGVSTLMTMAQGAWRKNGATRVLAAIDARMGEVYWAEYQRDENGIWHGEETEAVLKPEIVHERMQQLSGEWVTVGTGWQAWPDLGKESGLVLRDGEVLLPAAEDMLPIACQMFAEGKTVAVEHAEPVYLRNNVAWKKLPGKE
Chain of UniProt P31060 (P31060 whole entry): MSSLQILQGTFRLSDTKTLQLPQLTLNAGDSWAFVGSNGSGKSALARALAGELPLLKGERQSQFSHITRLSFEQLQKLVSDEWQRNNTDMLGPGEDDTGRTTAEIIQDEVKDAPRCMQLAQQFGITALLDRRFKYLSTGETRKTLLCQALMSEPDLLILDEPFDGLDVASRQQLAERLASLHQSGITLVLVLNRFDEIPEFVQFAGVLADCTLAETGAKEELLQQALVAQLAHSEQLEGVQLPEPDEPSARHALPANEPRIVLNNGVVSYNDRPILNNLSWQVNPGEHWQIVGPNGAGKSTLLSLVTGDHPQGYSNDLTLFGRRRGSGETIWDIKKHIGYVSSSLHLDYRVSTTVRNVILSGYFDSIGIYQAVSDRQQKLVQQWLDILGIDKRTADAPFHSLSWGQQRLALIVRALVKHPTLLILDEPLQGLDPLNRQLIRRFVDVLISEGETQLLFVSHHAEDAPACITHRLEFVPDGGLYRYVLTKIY
Chain of UniProt P0A9B6 (P0A9B6 whole entry): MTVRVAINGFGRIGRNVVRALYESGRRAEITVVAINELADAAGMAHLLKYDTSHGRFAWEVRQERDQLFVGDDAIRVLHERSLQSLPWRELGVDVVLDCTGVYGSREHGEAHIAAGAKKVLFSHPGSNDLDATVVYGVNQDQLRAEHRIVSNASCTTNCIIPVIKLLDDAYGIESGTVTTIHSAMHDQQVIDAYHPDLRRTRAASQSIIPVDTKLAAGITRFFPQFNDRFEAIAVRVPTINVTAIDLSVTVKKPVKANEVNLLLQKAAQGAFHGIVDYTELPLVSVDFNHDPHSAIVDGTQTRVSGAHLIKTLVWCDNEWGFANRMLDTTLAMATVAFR
Chain of UniProt P77756 (P77756 whole entry): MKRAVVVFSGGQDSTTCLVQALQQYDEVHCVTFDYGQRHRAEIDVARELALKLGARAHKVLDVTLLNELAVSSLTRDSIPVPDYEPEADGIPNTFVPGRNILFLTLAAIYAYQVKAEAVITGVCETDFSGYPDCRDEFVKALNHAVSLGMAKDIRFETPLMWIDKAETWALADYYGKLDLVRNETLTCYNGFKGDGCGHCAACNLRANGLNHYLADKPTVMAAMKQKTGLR
Chain of UniProt P76014 (P76014 whole entry): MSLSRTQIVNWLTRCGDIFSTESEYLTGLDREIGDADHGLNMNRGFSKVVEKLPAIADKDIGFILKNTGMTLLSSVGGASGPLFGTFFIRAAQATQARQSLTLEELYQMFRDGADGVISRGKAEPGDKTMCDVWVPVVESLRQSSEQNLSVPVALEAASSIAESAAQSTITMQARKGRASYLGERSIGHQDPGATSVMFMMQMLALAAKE
Chain of UniProt P27833 (P27833 whole entry): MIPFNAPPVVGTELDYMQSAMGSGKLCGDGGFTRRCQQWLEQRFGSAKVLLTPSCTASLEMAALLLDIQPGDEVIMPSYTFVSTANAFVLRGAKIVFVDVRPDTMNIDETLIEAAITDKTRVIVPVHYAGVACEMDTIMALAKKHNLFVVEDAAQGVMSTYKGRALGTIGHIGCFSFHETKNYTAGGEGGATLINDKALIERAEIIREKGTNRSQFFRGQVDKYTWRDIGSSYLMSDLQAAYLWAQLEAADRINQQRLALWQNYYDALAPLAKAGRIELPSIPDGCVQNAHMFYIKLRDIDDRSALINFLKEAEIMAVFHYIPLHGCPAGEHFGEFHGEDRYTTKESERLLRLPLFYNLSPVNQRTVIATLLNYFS

Nc1ncnc2c1ncn2[C@@H]1O[C@H](COP(=O)(O)OP(=O)(O)OP(=O)(O)O)[C@@H](O)[C@H]1O [adenosine 5'-triphosphate]
Conditions | pEC50 of peptide local stability change
MurF | 4.01
UniProt P0A6H5 | 3.26
UniProt P0A9B6 | 2.62
UniProt P0A9P6 | 3.67
UniProt P0AEC3 | 2.99
UniProt P0AFW8 | 3.07
UniProt P0C0L2 | 3.96
UniProt P0DMC5 | 2.58
UniProt P00582 | 3.5
UniProt P07109 | 3.88
UniProt P07118 | 3.75
UniProt P07395 | 3.77
UniProt P15640 | 3.7
UniProt P23830 | 2.53
UniProt P25888 | 3.76
UniProt P27300 | 3.18
UniProt P27833 | 2.89
UniProt P31060 | 2.89
UniProt P33940 | 3.09
UniProt P36938 | 2.48
UniProt P37617 | 3.12
UniProt P37903 | 3.72
UniProt P39177 | 3.26
UniProt P39342 | 4.23
UniProt P43672 | 3.81
UniProt P76014 | 3.61
UniProt P76192 | 3.75
UniProt P76256 | 3.97
UniProt P76419 | 3.74
UniProt P76422 | 3.76
UniProt P77756 | 3.62
